# Target: ACC2 (Homo sapiens, UniProt O00763)
# Test: In vitro ACC2 inhibition assay (ADP-Glo)
# Type: biochemical
# Conditions: read-out: ACC2
# Outline: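 Enzyme (human ACC1 or ACC2) and compound, serially diluted 1:3 over 11 points from a 600 uM DMSO stock, were preincubated 15 min before substrate addition.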
# Chain of ACC2 (O00763 whole entry, species assumed): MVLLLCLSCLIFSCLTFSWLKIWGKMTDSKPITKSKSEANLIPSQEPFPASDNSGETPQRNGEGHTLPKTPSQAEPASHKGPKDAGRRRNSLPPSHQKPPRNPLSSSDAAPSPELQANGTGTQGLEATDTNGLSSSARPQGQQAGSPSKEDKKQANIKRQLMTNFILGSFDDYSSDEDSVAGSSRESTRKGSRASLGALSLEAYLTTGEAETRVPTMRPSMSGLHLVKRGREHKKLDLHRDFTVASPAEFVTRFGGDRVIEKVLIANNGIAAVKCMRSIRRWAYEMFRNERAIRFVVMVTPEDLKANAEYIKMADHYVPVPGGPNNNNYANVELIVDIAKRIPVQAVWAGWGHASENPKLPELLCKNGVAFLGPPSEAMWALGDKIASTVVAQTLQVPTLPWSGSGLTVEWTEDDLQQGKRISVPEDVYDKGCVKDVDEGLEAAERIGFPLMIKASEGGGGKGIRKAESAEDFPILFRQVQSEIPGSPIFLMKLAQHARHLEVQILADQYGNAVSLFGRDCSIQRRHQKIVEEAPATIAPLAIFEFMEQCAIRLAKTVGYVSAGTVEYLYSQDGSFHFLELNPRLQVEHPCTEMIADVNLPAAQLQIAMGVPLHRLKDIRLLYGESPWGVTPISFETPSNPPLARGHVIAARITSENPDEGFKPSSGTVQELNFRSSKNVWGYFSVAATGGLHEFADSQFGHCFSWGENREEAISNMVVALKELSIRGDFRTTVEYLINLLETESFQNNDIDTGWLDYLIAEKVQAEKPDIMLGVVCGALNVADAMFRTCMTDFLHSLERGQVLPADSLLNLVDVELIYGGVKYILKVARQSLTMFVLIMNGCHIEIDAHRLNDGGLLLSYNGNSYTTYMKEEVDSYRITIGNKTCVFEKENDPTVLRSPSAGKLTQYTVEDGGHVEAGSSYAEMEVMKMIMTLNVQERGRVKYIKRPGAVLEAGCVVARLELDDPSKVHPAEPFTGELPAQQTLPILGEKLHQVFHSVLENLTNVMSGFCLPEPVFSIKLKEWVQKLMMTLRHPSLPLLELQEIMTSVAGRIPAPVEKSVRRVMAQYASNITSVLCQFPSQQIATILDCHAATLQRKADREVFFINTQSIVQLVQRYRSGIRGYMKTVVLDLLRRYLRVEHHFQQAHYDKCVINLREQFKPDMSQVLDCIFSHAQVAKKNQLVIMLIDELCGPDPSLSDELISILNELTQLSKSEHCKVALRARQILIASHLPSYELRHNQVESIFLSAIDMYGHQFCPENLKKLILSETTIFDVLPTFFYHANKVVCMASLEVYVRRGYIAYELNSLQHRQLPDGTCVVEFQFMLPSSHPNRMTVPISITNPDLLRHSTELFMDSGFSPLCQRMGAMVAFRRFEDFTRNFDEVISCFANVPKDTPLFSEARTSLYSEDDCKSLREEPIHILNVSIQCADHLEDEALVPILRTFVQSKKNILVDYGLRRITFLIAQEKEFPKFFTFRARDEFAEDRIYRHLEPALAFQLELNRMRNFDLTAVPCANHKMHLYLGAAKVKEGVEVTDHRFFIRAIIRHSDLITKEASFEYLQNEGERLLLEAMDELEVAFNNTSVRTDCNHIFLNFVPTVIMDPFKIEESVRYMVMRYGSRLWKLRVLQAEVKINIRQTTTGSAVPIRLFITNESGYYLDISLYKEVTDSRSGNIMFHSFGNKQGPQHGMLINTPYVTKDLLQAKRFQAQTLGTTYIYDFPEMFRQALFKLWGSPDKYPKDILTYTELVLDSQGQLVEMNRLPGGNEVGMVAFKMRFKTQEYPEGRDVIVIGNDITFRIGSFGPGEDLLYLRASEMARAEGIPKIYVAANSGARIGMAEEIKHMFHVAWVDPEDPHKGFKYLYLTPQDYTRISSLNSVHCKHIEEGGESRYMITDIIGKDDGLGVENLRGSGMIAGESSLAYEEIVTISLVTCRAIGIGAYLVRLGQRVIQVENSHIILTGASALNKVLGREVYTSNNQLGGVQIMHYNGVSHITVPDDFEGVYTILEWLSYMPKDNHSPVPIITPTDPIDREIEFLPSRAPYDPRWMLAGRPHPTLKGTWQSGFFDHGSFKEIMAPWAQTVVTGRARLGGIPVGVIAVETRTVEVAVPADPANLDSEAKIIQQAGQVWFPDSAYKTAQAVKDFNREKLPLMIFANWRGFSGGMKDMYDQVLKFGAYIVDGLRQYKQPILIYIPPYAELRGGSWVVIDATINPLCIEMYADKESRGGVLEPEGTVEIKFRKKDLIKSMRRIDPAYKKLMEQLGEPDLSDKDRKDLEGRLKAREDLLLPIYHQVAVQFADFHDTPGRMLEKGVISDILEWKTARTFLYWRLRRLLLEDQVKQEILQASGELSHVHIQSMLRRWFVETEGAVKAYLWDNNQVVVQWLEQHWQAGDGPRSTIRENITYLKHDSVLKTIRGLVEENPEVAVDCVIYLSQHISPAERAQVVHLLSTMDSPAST
row,SMILES,IC50 [µM]
1,"Cc1c(-c2ncco2)sc2c1c(=O)n(C(C)(C)C(=O)O)c(=O)n2CCC1CCCCC1 [I-176, 2-[1-(2-cyclohexylethyl)-5-methyl-6-(1,3-oxazol-2-yl)-2,4-dioxo-1H,2H,3H,4H-thieno[2,3-d]pyrimidin-3-yl]-2-methylpropanoic acid]",< 5
2,"Cc1c(-c2ncco2)sc2c1c(=O)n(C(C)(C)C(=O)O)c(=O)n2C[C@H](OC[C@H](C)O)c1ccccc1 [I-178, 2-[1-[(2R)-2-[(2S)-2-hydroxypropoxy]-2-phenylethyl]-5-methyl-6-(1,3-oxazol-2-yl)-2,4-dioxo-1H,2H,3H,4H-thieno[2,3-d]pyrimidin-3-yl]-2-methylpropanoic acid]",< 5
3,"Cc1c(-c2ncco2)sc2c1c(=O)n(C(C)(C)C(=O)O)c(=O)n2C[C@H](OC1COC1)c1ccccc1 [I-182, 2-methyl-2-[5-methyl-6-(1,3-oxazol-2-yl)-1-[(2R)-2-(oxetan-3-yloxy)-2-phenylethyl]-2,4-dioxo-1H,2H,3H,4H-thieno[2,3-d]pyrimidin-3-yl]propanoic acid]",20 to 50
4,"Cc1c(-c2ncco2)sc2c1c(=O)n(C(C)(C)C(=O)O)c(=O)n2C[C@H](OC(=O)N1CC(O)C1)c1ccccc1 [I-230, 2-[1-[(2R)-2-[(3-hydroxyazetidin-1-yl)carbonyloxy]-2-phenylethyl]-5-methyl-6-(1,3-oxazol-2-yl)-2,4-dioxo-1H,2H,3H,4H-thieno[2,3-d]pyrimidin-3-yl]-2-methylpropanoic acid]",< 5
5,"Cc1c(-c2ncco2)sc2c1c(=O)n(C(C)(C)C(=O)O)c(=O)n2C[C@H](OC(=O)N1CCOCC1)c1ccccc1 [I-231, 2-methyl-2-[5-methyl-1-[(2R)-2-[(morpholin-4-yl)carbonyloxy]-2-phenylethyl]-6-(1,3-oxazol-2-yl)-2,4-dioxo-1H,2H,3H,4H-thieno[2,3-d]pyrimidin-3-yl]propanoic acid]",< 5
6,"Cc1c(-c2ncco2)sc2c1c(=O)n(C(C)(C)C(=O)O)c(=O)n2CCOC1CCOCC1 [I-233, 2-methyl-2-[5-methyl-1-[2-(oxan-4-yloxy)ethyl]-6-(1,3-oxazol-2-yl)-2,4-dioxo-1H,2H,3H,4H-thieno[2,3-d]pyrimidin-3-yl]propanoic acid]",< 5
7,"Cc1c(-c2ncco2)sc2c1c(=O)n(C(C)(C)C(=O)O)c(=O)n2CCOC(C)C [I-234, 2-methyl-2-[5-methyl-6-(1,3-oxazol-2-yl)-2,4-dioxo-1-[2-(propan-2-yloxy)ethyl]-1H,2H,3H,4H-thieno[2,3-d]pyrimidin-3-yl]propanoic acid]",< 5
8,"Cc1c(-c2ncco2)sc2c1c(=O)n(C(C)(C)C(=O)O)c(=O)n2C[C@@H](OC1CCOCC1)c1ccccc1Cl [I-251, 2-[1-[(2S)-2-(2-chlorophenyl)-2-(oxan-4-yloxy)ethyl]-5-methyl-6-(1,3-oxazol-2-yl)-2,4-dioxo-1H,2H,3H,4H-thieno[2,3-d]pyrimidin-3-yl]-2-methylpropanoic acid]",< 5
9,"COc1ccccc1[C@H](Cn1c(=O)n(C(C)(C)C(=O)NCCO)c(=O)c2c(C)c(-c3ncco3)sc21)OC(C)C [I-257, N-(2-hydroxyethyl)-2-[1-[(2R)-2-(2-methoxyphenyl)-2-(propan-2-yloxy)ethyl]-5-methyl-6-(1,3-oxazol-2-yl)-2,4-dioxo-1H,2H,3H,4H-thieno[2,3-d]pyrimidin-3-yl]-2-methylpropanamide]",< 5
10,"COc1ccccc1[C@H](Cn1c(=O)n(C(C)(C)C(=O)O)c(=O)c2c(C)c(-c3ncco3)sc21)OC1COC1 [I-261, (R)-2-(1-(2-(2-methoxyphenyl)-2-(oxetan-3-yloxy)ethyl)-5-methyl-6-(oxazol-2-yl)-2,4-dioxo-1,2-dihydrothieno[2,3-d]pyrimidin-3(4H)-yl)-2-methylpropanoic acid]",< 5
11,"COc1ccccc1[C@@H](Cn1c(=O)n(C(C)(C)C(=O)O)c(=O)c2c(C)c(-c3ncco3)sc21)OC1COC1 [I-262, (S)-2-(1-(2-(2-methoxyphenyl)-2-(oxetan-3-yloxy)ethyl)-5-methyl-6-(oxazol-2-yl)-2,4-dioxo-1,2-dihydrothieno[2,3-d]pyrimidin-3(4H)-yl)-2-methylpropanoic acid]",< 5
12,"CCc1ccccc1[C@@H](Cn1c(=O)n(C(C)(C)C(=O)O)c(=O)c2c(C)c(-c3ncco3)sc21)OCCO [I-263, 2-[1-[(2S)-2-(2-ethylphenyl)-2-(2-hydroxyethoxy)ethyl]-5-methyl-6-(1,3-oxazol-2-yl)-2,4-dioxo-1H,2H,3H,4H-thieno[2,3-d]pyrimidin-3-yl]-2-methylpropanoic acid]",< 1
13,"COc1ccccc1[C@H](Cn1c(=O)n(CC(N)=O)c(=O)c2c(C)c(Br)sc21)OC1CCOCC1 [I-285, 2-[6-bromo-1-[(2R)-2-(2-methoxyphenyl)-2-(oxan-4-yloxy)ethyl]-5-methyl-2,4-dioxo-1H,2H,3H,4H-thieno[2,3-d]pyrimidin-3-yl]acetamide]",< 5

# Second part, the compound after the results:
row,IC50 [µM],SMILES
1,< 1,"Cc1c(-c2ncco2)sc2c1c(=O)n(C(C)(C)C(=O)O)c(=O)n2C[C@H](O[C@H]1CCC[C@@H](O)C1)c1ccccc1 [I-173, 2-(1-((R)-2-(((1S,3R)-3-hydroxycyclohexyl)oxy)-2-phenylethyl)-5-methyl-6-(oxazol-2-yl)-2,4-dioxo-1,2-dihydrothieno[2,3-d]pyrimidin-3(4H)-yl)-2-methylpropanoic acid]"
2,< 1,"Cc1c(-c2ncco2)sc2c1c(=O)n(C(C)(C)C(=O)O)c(=O)n2C[C@H](OCC(C)(C)O)c1ccccc1 [I-175, 2-[1-[(2R)-2-(2-hydroxy-2-methylpropoxy)-2-phenylethyl]-5-methyl-6-(1,3-oxazol-2-yl)-2,4-dioxo-1H,2H,3H,4H-thieno[2,3-d]pyrimidin-3-yl]-2-methylpropanoic acid]"
3,< 0.1,"CCOc1ccccc1[C@H](Cn1c(=O)n(C(C)(C)C(=O)O)c(=O)c2c(C)c(-c3ncco3)sc21)OC1CCOCC1 [I-183, 2-[1-[(2R)-2-(2-ethoxyphenyl)-2-(oxan-4-yloxy)ethyl]-5-methyl-6-(1,3-oxazol-2-yl)-2,4-dioxo-1H,2H,3H,4H-thieno[2,3-d]pyrimidin-3-yl]-2-methylpropanoic acid]"
4,< 1,"Cc1c(-c2ncco2)sc2c1c(=O)n(C(C)(C)C(=O)O)c(=O)n2C[C@H](O[C@H](C)CO)c1ccccc1 [I-184, 2-[1-[(2R)-2-[[(2R)-1-hydroxypropan-2-yl]oxy]-2-phenylethyl]-5-methyl-6-(1,3-oxazol-2-yl)-2,4-dioxo-1H,2H,3H,4H-thieno[2,3-d]pyrimidin-3-yl]-2-methylpropanoic acid]"
5,< 1,"Cc1c(-c2ncco2)sc2c1c(=O)n(C(C)(C)C(=O)O)c(=O)n2C[C@H](O[C@@H](C)CO)c1ccccc1 [I-185, 2-[1-[(2R)-2-[[(2S)-1-hydroxypropan-2-yl]oxy]-2-phenylethyl]-5-methyl-6-(1,3-oxazol-2-yl)-2,4-dioxo-1H,2H,3H,4H-thieno[2,3-d]pyrimidin-3-yl]-2-methylpropanoic acid]"
6,< 1,"Cc1c(-c2ncco2)sc2c1c(=O)n(C(C)(C)C(=O)O)c(=O)n2C[C@H](O[C@@H]1CCOC1)c1ccccc1 [I-186, 2-methyl-2-[5-methyl-6-(1,3-oxazol-2-yl)-2,4-dioxo-1-[(2R)-2-[(3R)-oxolan-3-yloxy]-2-phenylethyl]-1H,2H,3H,4H-thieno[2,3-d]pyrimidin-3-yl]propanoic acid]"
7,< 0.1,"COc1ccccc1[C@H](Cn1c(=O)n(C(C)(C)C(=O)NS(C)(=O)=O)c(=O)c2c(C)c(-c3ncco3)sc21)OC(C)C [I-240, N-methanesulfonyl-2-[1-[(2R)-2-(2-methoxyphenyl)-2-(propan-2-yloxy)ethyl]-5-methyl-6-(1,3-oxazol-2-yl)-2,4-dioxo-1H,2H,3H,4H-thieno[2,3-d]pyrimidin-3-yl]-2-methylpropanamide]"
8,< 0.1,"COCc1ccccc1[C@H](Cn1c(=O)n(C(C)(C)C(=O)O)c(=O)c2c(C)c(-c3ncco3)sc21)OC1CCOCC1 [I-293, 2-[1-[(2R)-2-[2-(methoxymethyl)phenyl]-2-(oxan-4-yloxy)ethyl]-5-methyl-6-(1,3-oxazol-2-yl)-2,4-dioxo-1H,2H,3H,4H-thieno[2,3-d]pyrimidin-3-yl]-2-methylpropanoic acid]"
9,< 0.1,"Cc1c(-c2ncco2)sc2c1c(=O)n(C(C)(C)C(=O)O)c(=O)n2C[C@H](OC1CCOCC1)c1ccccc1CO [I-296, 2-[1-[(2R)-2-[2-(hydroxymethyl)phenyl]-2-(oxan-4-yloxy)ethyl]-5-methyl-6-(1,3-oxazol-2-yl)-2,4-dioxo-1H,2H,3H,4H-thieno[2,3-d]pyrimidin-3-yl]-2-methylpropanoic acid]"

# Source: patent publication US9453026B2, “ACC inhibitors and uses thereof” (Gilead Apollo, Inc., priority 2011, dated 2016)
